The values below come from patent publication US10206902B2, “Mono- or di-substituted indoles as dengue viral replication inhibitors” (priority 2014, dated 2019).

In general, EC50 refers to the concentration giving half of the maximal effect. For orientation: melting point means the temperature, or range, at which the solid turns liquid. The term CC50 denotes the concentration giving 50% cytotoxicity.

One data set deals with DENV-2 16681 strain. Nature of the data set: DENV-2 antiviral assay (eGFP-labelled virus in Vero cells). Type of data set: cell-based, Dengue virus. To be noted: DENV-2 16681 eGFP, MOI 0.5, 3 days. On the procedure:
The antiviral activity of all the compounds of the invention was tested against DENV-2 16681 strain which was labeled with enhanced green fluorescent protein (eGPF). The culture medium consists of minimal essential medium supplemented with 2% of heat-inactivated fetal calf serum, 0.04% gentamycin (50 mg/mL) and 2 mM of L-glutamine. Vero cells, obtained from ECACC, were suspended in culture medium and 25 μL was added to 384-well plates (2500 cells/well), which already contain the antiviral compounds. Typically, these plates contain a 4-fold serial dilution of 9 dilution steps of the test compound at 200 times the final concentration in 100% DMSO (200 nL). In addition, each compound concentration is tested in quadruplicate (final concentration range: 25 μM-0.00038 μM). Finally, each plate contains wells which are assigned as virus controls (containing cells and virus in the absence of compound), cell controls (containing cells in the absence of virus and compound) and medium controls (containing medium in the absence of cells, virus and compounds). To the wells assigned as medium control, 25 μL of culture medium was added instead of Vero cells. Once the cells were added to the plates, the plates were incubated for 30 minutes at room temperature to allow the cells to distribute evenly within the wells. Next, the plates were incubated in a fully humidified incubator (37° C., 5% CO2) until the next day. Then, DENV-2 strain 16681, labeled with eGFP, was added at a multiplicity of infection (MOI) of 0.5. Therefore, 15 μL of virus suspension was added to all the wells containing test compound and to the wells assigned as virus control. In parallel, 15 μL of culture medium was added to the medium and cell controls. Next, the plates were incubated for 3 days in a fully humidified incubator (37° C., 5% CO2). At the day of the read out, the eGFP fluorescence was measured using an automated fluorescence microscope at 488 nm (blue laser). Using an in-house LIMS system, inhibition dose response curves for each compound were calculated and the half maximal effective concentration (EC50) was determined. Therefore, the percent inhibition (I) for every test concentration is calculated using the following formula: I=100*(ST−SCC)/(SVC−SCC); ST, SCC and SVC are the amount of eGFP signal in the test compound, cell control and virus control wells, respectively. The EC50 represents the concentration of a compound at which the virus replication is inhibited with 50%, as measured by a 50% reduction of the eGFP fluorescent intensity compared to the virus control. The EC50 is calculated using linear interpolation (Table 1).

The nature of the next data set: in vitro. The settings on record: African green monkey, CC50. It is filed as cell-based. On the procedure: (§1) In parallel, the toxicity of the compounds was assessed on the same plates. Once the read-out for the eGFP signal was done, 10 μL of resazurin, a cell viability stain, was added to all wells of the 384-well plates. The resazurin assay is based on the reduction of the blue resazurin by NADH, produced by the cells, into the highly fluorescent product, resorufin. The formation of pink fluorescent resorufin is directly related to the number of viable cells in the well. The plates were incubated for an additional 5 hours in a fully humidified incubator (37° C., 5% CO2). Next, the plates were measured on an Infinite reader (Tecan) using an excitation wavelength of 530 nm. The half maximal cytotoxic concentration (CO50) was also determined, defined as the concentration required to reduce the resazurin conversion by 50% compared to that of the cell control wells (Table 1). Finally, the selectivity index (SI) was determined for the compounds, which was calculated as followed: SI=CC50/EC50.

The next data set deals with Vero cells. As to the kind of experiment: in vitro. Type of data set: cell-based. The settings on record: African green monkey. The protocol:
as §1

As to `COc1cc(NC(C(=O)c2c[nH]c3c(C)cc(F)cc23)c2ccc(F)cc2OC)cc(OCCO)c1` (racemic) [Compound 9, 2-(4-fluoro-2-methoxyphenyl)-1-(5-fluoro-7-methyl-1H-indol-3-yl)-2-((3-(2-hydroxyethoxy)-5-methoxyphenyl)amino)ethanone], the melting point turned out to be 179 °C. In addition, the EC50 in the data set with DENV-2 16681 strain (Dengue virus, DENV2, Vero, 72 h) was found to be 0.0094 µM. The compound further came in with a half-maximal cytotoxic concentration (CC50) in the data set “in vitro” of 7.5 µM.

As for `COc1cc(NC(C(=O)c2c[nH]c3cc(OC)c(F)cc23)c2ccc(F)cc2OC)cc(OCCO)c1` (single isomer, unassigned) [Compound 7B, 2-(4-fluoro-2-methoxyphenyl)-1-(5-fluoro-6-methoxy-1H-indol-3-yl)-2-((3-(2-hydroxyethoxy)-5-methoxyphenyl)amino)ethanone], a half-maximal response with DENV-2 16681 strain (EC50) required 0.54 µM. Besides, the 50% cytotoxic concentration (CC50) in the data set on Vero cells came to 14 µM.
